Data from PMC6305410, “High-Throughput Screening for Bacterial Glycosyltransferase Inhibitors” (Frontiers in Cellular and Infection Microbiology, 2018).

Biological target: T1, NleB1 (Escherichia coli, UniProt Q8XBX8)
T1 construct: GST-EHEC-NleB1 in pET42a (GST/His tagged), expressed in E. coli BL21 (DE3), nickel purified; some tag cleavage noted
Details: inhibitor; for % NleB1 inhibition (µM compound) / 10: 10 µM; for % NleB1 inhibition (µM compound) / 20: 20 µM; for % NleB1 inhibition (µM compound) / 40: 40 µM; for % NleB1 inhibition (µM compound) / 80: 80 µM; for % NleB1 inhibition (µM compound) / 160: 160 µM

| Compound | % NleB1 inhibition (µM compound) / 10 | % NleB1 inhibition (µM compound) / 20 | % NleB1 inhibition (µM compound) / 40 | % NleB1 inhibition (µM compound) / 80 | % NleB1 inhibition (µM compound) / 160 |
| --- | --- | --- | --- | --- | --- |
| O=C1CCN(S(=O)(=O)c2ccccc2)CCN1CCOCc1ccc(Cl)cc1 [KUC100988N] | 31.9% | 14.5% | 26.3% | 28.3% | 36.0% |
| O=C(Oc1ccc([N+](=O)[O-])cc1)O[C@H]1CC[C@@]23CCCN2C(=O)CCC[C@H]3[C@H]1Cc1ccccc1 [KUC112275N] | 2.6% | 5.6% | 11.0% | 24.2% | 34.9% |
| C[C@H](c1ccccc1)N1C[C@@H](COCc2ccccc2)Oc2cc(N3CC[C@@H](O)C3)ccc2S1(=O)=O [KUC108511N] | 33.8% | 33.0% | 29.9% | 49.8% | 63.7% |
| O=C1CCC[C@@H]2Cc3nc4ccc(O)cc4cc3[C@@H]3CCN1[C@H]23 [KUC103038N] | 26.7% | 35.2% | 34.4% | 47.9% | 76.1% |
| C[C@@H](NS(=O)(=O)c1cc(Cl)ccc1F)[C@H](O)c1ccccc1 [KUC103993N] | 27.5% | 31.8% | 31.8% | 34.5% | 37.0% |
| O=S1(=O)CCOC[C@H](c2ccccc2)N1Cc1ccc(Cl)c(Cl)c1 [KUC102739N] | 16.3% | 16.2% | 25.3% | 35.0% | 45.5% |
| CCCCCC(=O)N1C[C@H](n2cc(COC(=O)c3ccccc3)nn2)[C@@H](O)C[C@@H]1c1ccc(Cl)cc1 [KUC105040N] | 9.1% | 14.5% | 18.9% | 40.4% | 50.7% |
| COCOCCn1cc(CN2CCS(=O)(=O)N(Cc3ccc(-c4ccc(OC)nc4)cc3)C(C(C)C)C2=O)nn1 (stereo not shown) [KUC105133N] | 30.4% | 40.4% | 45.5% | 62.2% | 75.8% |
| CC(C)CC1C(=O)N(Cc2cn(CCC3OCCCO3)nn2)CCS(=O)(=O)N1Cc1ccc(-c2ccc(F)nc2)cc1 (stereo not shown) [KUC105151N] | 0.6% | 15.1% | 31.9% | 50.8% | 53.0% |
| C=CCN1CC[C@@H](O)C(=C)S1(=O)=O [KUC103094N] | 19.8% | 23.8% | 19.2% | 18.2% | 18.0% |
| CC(=O)c1ccc(OCc2cn(CC(=O)c3ccc(O)cc3)nn2)c(F)c1 [KUC104088N] | 45.4% | 47.7% | 59.8% | 76.5% | 92.0% |
| O=c1cc(-c2ccccc2Cl)oc2c(NS(=O)(=O)c3cc(Cl)cc(Cl)c3O)ccc(O)c12 [KUC100066N] | 43.0% | 71.1% | 84.8% | 96.0% | 96.8% |
| O=C(c1ccc([N+](=O)[O-])cc1)N1[C@H](COCc2ccccc2)C=CS1(=O)=O [KUC107029N] | 30.6% | 41.5% | 43.4% | 48.6% | 43.4% |
| C[C@@H]1NC(=O)O[C@H]1c1ccco1 [KUC103195N] | 23.8% | 25.6% | 28.1% | 33.5% | 23.9% |
| CCCC(=O)c1ccc(OCc2cn(CC(=O)c3ccc(O)cc3)nn2)cc1 [KUC104099N] | 32.9% | 42.2% | 45.2% | 62.5% | 77.5% |
| CN1CCC(N2CCN(C3CN(Cc4cn(Cc5cccc(Cl)c5)nn4)S(=O)(=O)C3)CC2)CC1 (stereo not shown) [KUC108133N] | 4.1% | 18.2% | 22.3% | 18.0% | 18.2% |
| Cc1ccc([C@H]2CC[C@]3(CCC(=O)N3CCOC(=O)Nc3cccc(C#N)c3)CC2)cc1 [KUC111012N] | 17.3% | 25.1% | 22.4% | 20.7% | 20.5% |
| CC(C)CN1CCC(=O)N(CCC#N)CC1 [KUC102485N] | 16.0% | 23.1% | 17.6% | 19.0% | 20.8% |
| O=Cc1cccc(OCc2cn(CC(=O)c3ccc(O)cc3)nn2)c1 [KUC104114N] | 31.8% | 42.3% | 57.2% | 76.5% | 92.0% |
| CC1C(=O)N(Cc2cn(CCC3OCCCO3)nn2)CCS(=O)(=O)N1Cc1ccc(-c2cccc(N(C)C)c2)cc1 (stereo not shown) [KUC104889N] | 26.6% | 28.9% | 29.5% | 35.9% | 44.5% |
